# Columns and labels:
# [1] = system: dry eye in patients with autoimmune connective tissue disease; conditions: human patients; suspensions 0.005%, 0.05% and 0.1%; one drop each eye four times per day for six weeks
# From the text: Three different suspensions, containing rimexolone at concentrations of 0.005%, 0.05% and 0.1%, respectively, were utilized in the study. A fourth formulation, which was identical to the three rimexolone suspensions except for the elimination of rimexolone, was utilized as a control (i.e., placebo).
# The patients in each group administered one drop of the respective formulations to each eye four times per day for six weeks. Following the end of the six week drug administration period, the patients' symptoms were evaluated.
# [2] = system: desiccation-induced corneal injury in rabbits; test: Desiccation-induced corneal injury (methylene blue uptake) after lacrimal gland inflammation; format: in vivo, New Zealand white rabbits; conditions: rabbit
# Procedure: The ability of low doses of rimexolone to alleviate dry eye conditions was evaluated. […] The experimental procedures are described below. In a separate group of animals, susceptibility to desiccation-induced corneal injury was assessed following the induction of lacrimal gland inflammation. Desiccation was initiated by placing the rabbits in a low humidity environment continuously for up to three days. Corneal injury was assessed by determining the uptake of the vital dye, methylene blue. Under general anesthesia, the ocular surface was bathed in a 1% solution of methylene blue for five minutes and then washed. The animals were euthanized, eyes were excised and an 8 mm-diameter section of cornea was isolated and extracted overnight. The concentration of extracted dye was determined spectrophotometrically ([…]). Protection of the cornea is indicated by a lesser uptake of dye in drug treated animals relative to that in vehicle treated rabbits. For both TBUT and corneal injury determinations, dosing (QID) was initiated 24-hours prior to inducing inflammation and was continued for the duration of the study. A second dose-response study was conducted using the procedures described in Example 2 above.
# [3] = system: dry eye induced in New Zealand white rabbits; test: Tear breakup time (TBUT) in rabbit dry eye model (lacrimal gland inflammation); format: in vivo
# Procedure: The ability of low doses of rimexolone to alleviate dry eye conditions was evaluated. […] The experimental procedures are described below. Dry eye was induced in New Zealand white rabbits (approximately 2 kg) by eliciting bilateral inflammation of the lacrimal glands. Tear function was assessed by measuring tear breakup time (“TBUT”) daily for three days, following the induction of dry eye. TBUT was determined by instilling […] into the cul de sac and manually blinking the lids to distribute the fluorescein within the tear film. Under slit lamp observation, the eye was held open and the time to tear film breakup recorded. Efficacy was determined by comparing TBUT relative to pre-inflammation baseline values in drug and vehicle treated animals. In a separate group of animals, susceptibility to desiccation-induced corneal injury was assessed following the induction of lacrimal gland inflammation. Desiccation was initiated by placing the rabbits in a low humidity environment continuously for up to three days. Corneal injury was assessed by determining the uptake of the vital dye, methylene blue. Under general anesthesia, the ocular surface was bathed in a 1% solution of methylene blue for five minutes and then washed. The animals were euthanized, eyes were excised and an 8 mm-diameter section of cornea was isolated and extracted overnight. The concentration of extracted dye was determined spectrophotometrically ([…]). Protection of the cornea is indicated by a lesser uptake of dye in drug treated animals relative to that in vehicle treated rabbits. For both TBUT and corneal injury determinations, dosing (QID) was initiated 24-hours prior to inducing inflammation and was continued for the duration of the study. A second dose-response study was conducted using the procedures described in Example 2 above.
# [4] = Example 2, tested 0.005%, 0.01%, 0.05 and 0.1%
# [5] = Example 3 (second dose-response study)
smiles,measurement,setting,value
CCC(=O)[C@@]1(C)[C@H](C)C[C@H]2[C@@H]3CCC4=CC(=O)C=C[C@]4(C)[C@H]3[C@@H](O)C[C@@]21C [rimexolone],dry eye symptoms (discomfort) versus vehicle/placebo,[1],less dry eye symptoms
same,increases in intraocular pressure,[1],did not exhibit any clinically relevant increases in intraocular pressure
same,inhibition of desiccation-induced corneal injury (peak efficacy),"[2]; Example 2, rimexolone 0.1% suspension, QID, FIG. 2",74 % inhibition
same,maximally effective concentration for prevention of desiccation-induced corneal staining,[2]; [4],0.1%
same,maximally effective concentration for prevention of desiccation-induced corneal staining,[2]; [5],0.1%
same,inhibition of corneal staining,"[2]; Example 3 (second dose-response study), rimexolone 0.1%, FIG. 4",77%
same,TBUT expressed as percent of baseline on day three,"[3]; Example 2, rimexolone 0.1% suspension, QID, FIG. 1",66 % of baseline
same,maximally effective concentration for restoration of TBUT,[3]; [4],0.1%
same,maximally effective concentration for restoration of TBUT,[3]; [5],0.1%
same,"TBUT restored, percent of baseline on day three","[3]; Example 3 (second dose-response study), rimexolone 0.1%, FIG. 3",71 % of baseline
